Like-named read-outs stand apart in the source and are kept apart here.
Tests used:
5HT1A receptor = 5HT1A receptor (Rattus norvegicus (Rat), UniProt P19327); test: 5HT1A receptor binding assay (3H-8-OH-DPAT); settings: test compound final concentration 10^-5 M
Description: Preparation of 5HT1A Membrane
Incubation at 37° C. was conducted for 10 min, the weight of the tubes were adjusted using a balance after incubation. […] Centrifugation was conducted and repeated 3 times.
Materials for the Receptor Binding Assay

D2 receptor = D2 receptor (Rattus norvegicus (Rat), UniProt P61169); test: D2 receptor inhibition binding assay (3H-Spiperone); settings: read-out: D2 inhibition %
Description: Rats were sacrificed by cervical dislocation on ice. Cerebral cortex was rapidly taken, and 2 cerebral cortexes were combined into a centrifuge tube, to which 3 ml of buffer (0.05 M Tris-HCl buffer, containing NaCl 120 mM, KCl 5 mM, MgCl2 1 mM, CaCl2 1 mM) was added, homogenization was conducted for 3-4 s at level 4 for four times, and then 5 ml of buffer was then added. The weight of the homogenized tubes were adjusted using a balance, and centrifugation was conducted at 12000 r, 4° C. for 20 min. The supernatant was discarded, and 3 ml of B solution was added. Vortex mixer was used for blending, and then 5 ml of B solution was added. Centrifugation was conducted and repeated 3 times. After the centrifugations, the supernatant was discarded, and the pellets were stored at −80° C. for future use.
Beckman LS-6500 Multi-function Liquid Scintillation Counter was used.
(1) The prepared membrane was first applied with appropriate amount of homogenized liquid, and homogenizer was used for evenly dispersing. 15 tubes were mixed into a 100 ml container, and appropriate amount of homogenized liquid was added to give 50 ml of membrane suspension, which was reserved for future use.
(2) 100 μL of membrane preparation and 100 μL of buffer were added into each reaction tube.
(3) 100 μL of homogenized liquid was added into the total binding tube (TB), 100 μL of Butaclamol (final concentration 10^−5 M) was added into the non-specific binding tube (NB), and 100 μL of the test compound (final concentration 10^−5 M) was added into the specific binding tube (SB) for each compound.
(5) Each of the reaction tubes was incubated at 37° C. for 20 min. After the reaction was completed, the bound ligands were rapidly filtered under reduced pressure, and the ice-chilled assay buffer was used for adequate washing. The filter was taken out and put into a 3 ml scintillation vial, and 2 ml of toluene scintillation solution was added and blended.
(6) The scintillation vials were put into Liquid Scintillation Counter for counting. Inhibitory rate (I %)=(Total binding tube cpm−compound cpm)/(Total binding tube cpm−non-specific binding tube cpm)×100%
Each assay for the compounds was conducted in duplicate.

5HT2A receptor = 5HT2A receptor (Rattus norvegicus (Rat), UniProt P14842); test: 5HT2A receptor binding assay ([3H]-Ketanserin); settings: read-out: 5HT2A inhibition %
KM mice = test: Apomorphine induced clambering assay of mice; type: in vivo; settings: for ED50: Mus musculus, read-out: apomorphine induced clambering ED50; for Scoring (value), apomorphine induced clambering: x ± s, n = 10
Description: Apomorphine Induced Clambering Assay of Mice
Healthy KM mice (male, with body weight of 18-22 g) were provided by Qinglongshan Animal Cultivation Center, Nanjing.
Apomorphine provided by Sigma Company was dissolved in 0.9% NaCl (containing 0.1% vitamin C) before use, and was freshly formulated before use.
Vitamin C, F20061113, was provided by Sinopharm Chemical Reagent Co. Ltd.
Sodium chloride injection, H32026305, was provided by Xuzhou No. 5 Pharmaceutical Factory Co. Ltd.
Instruments: self-made clambering cage, chronograph.
Procedures: apomorphine induced clambering assay of mice
After 5 min of adaptation, the behaviors of the mice at 10-11, 20-21, and 30-31 min after the injection of apomorphine were observed and scored. Scoring criteria: 4 paws on the floor was scored as 0; 2 forepaws on the cage was scored as 1; and 4 paws on the cage was scored as 2.

in vivo [1] = settings: both, Kunming (KM), mouse, po
Description: Healthy mice of Kunming breed (with half male and half female, (22±2) g) were provided by Qinglongshan Animal Cultivation Center, Nanjing.
The durations for the mice to maintain the posture with the two forepaws on the bars were recorded, and 30 s of spasticity without moving was considered as the positive response. In the case the forepaws of the mice were not put down persistently, the observation was terminated at 60 s. The numbers of animals with positive response in each of the compound dosage groups were counted.

in vivo [2] = settings: both sexes, mouse, in vivo, po
Description: Limit Test of Sequential Assay
KM mice (half male and half female) were randomly divided into several groups (with 2-5 mice in each group), which were respectively the 2000 mg/kg groups for each compound, and the solvent group. 0.2 ml/10 g were administered intragastrically. The death of the animals in 3 days were observed. (In the case 3 or more animals survived in 3 days without notable abnormity in their life states, the observation was continued until the assay was completed in 7 days. In the case 3 or more animals died in 3 days, the median lethal dose method was used to determine the LD50).
Pre-Assay for the Median Lethal Dose Method
0.2 ml/10 g were administered intragastrically, and the death of the animals in 1-3 days were observed.

mice of Kunming breed = test: MK-801 induced high activity; type: in vivo; settings: po, mice; for ED50: Mus musculus
Description: Healthy mice of Kunming breed (with half male and half female, (20±2) g) were provided by Qinglongshan Animal Cultivation Center, Nanjing.
Ascorbic acid was provided by Sinopharm Chemical Reagent Co. Ltd.
Tween 80, with the concentration of 10%.
Subsequently, the spontaneous activities of the mice of each group in 90 min were measured.

Sequence of 5HT1A receptor (P19327 whole entry): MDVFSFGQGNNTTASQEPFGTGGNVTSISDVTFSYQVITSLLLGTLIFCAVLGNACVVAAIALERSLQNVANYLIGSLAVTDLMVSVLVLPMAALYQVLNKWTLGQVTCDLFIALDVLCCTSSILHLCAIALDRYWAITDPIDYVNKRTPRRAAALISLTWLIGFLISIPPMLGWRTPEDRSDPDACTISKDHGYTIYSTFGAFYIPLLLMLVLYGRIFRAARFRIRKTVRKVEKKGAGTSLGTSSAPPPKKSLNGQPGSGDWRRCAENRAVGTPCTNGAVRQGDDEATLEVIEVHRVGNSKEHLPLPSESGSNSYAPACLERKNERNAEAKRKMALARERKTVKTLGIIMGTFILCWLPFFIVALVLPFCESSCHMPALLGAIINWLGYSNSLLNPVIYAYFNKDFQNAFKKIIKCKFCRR
Sequence of 5HT2A receptor (P14842 whole entry): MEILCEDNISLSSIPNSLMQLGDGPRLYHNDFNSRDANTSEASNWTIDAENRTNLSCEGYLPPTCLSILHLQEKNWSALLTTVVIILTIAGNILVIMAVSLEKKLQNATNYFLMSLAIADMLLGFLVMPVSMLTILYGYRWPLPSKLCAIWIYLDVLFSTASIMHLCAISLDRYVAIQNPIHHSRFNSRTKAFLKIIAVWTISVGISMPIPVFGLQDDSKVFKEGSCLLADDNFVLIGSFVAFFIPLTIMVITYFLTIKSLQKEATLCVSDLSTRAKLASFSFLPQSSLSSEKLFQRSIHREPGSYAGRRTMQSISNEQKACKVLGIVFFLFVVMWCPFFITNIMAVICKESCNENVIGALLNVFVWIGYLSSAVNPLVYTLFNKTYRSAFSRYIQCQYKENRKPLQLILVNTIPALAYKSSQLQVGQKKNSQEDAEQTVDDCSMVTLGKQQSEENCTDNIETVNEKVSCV
Sequence of D2 receptor (P61169 whole entry): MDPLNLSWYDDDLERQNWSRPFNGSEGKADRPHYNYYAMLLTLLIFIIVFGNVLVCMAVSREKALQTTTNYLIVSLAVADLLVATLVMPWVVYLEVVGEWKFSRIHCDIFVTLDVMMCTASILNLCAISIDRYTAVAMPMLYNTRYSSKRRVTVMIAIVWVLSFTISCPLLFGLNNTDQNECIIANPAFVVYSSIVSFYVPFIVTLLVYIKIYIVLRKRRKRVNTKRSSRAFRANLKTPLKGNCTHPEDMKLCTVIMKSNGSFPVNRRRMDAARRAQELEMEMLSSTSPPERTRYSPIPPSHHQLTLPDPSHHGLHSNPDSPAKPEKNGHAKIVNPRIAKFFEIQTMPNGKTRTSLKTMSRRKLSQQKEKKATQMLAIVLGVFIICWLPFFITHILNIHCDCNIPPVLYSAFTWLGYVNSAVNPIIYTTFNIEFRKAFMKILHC

SMILES | inhibition at 10 µM (5HT1A receptor) | inhibition at 10 µM (D2 receptor) | inhibition at 10 µM (5HT2A receptor) | also measured
COc1ccccc1N1CCN(CCCCOc2ccc3c4c(c(=O)oc3c2C)CCCC4)CC1 [Compound 20, 3-{4-[4-(2-methoxyphenyl)piperazin-1-yl]-butoxy}-4-methyl-7,8,9,10-tetrahydrobenzo[c]benzopyran-6-one] | 100% | 66.4% | 90.7% | 
COc1ccccc1N1CCN(CCCCOc2cc3oc(=O)c4c(c3cc2Cl)CCC4)CC1 [Compound 17, 7-{4-[4-(2-methoxyphenyl)piperazin-1-yl-butoxy]}-8-chloro-2,3-dihydro-1H-cyclopenteno[c]benzopyran-4-one] | 115% | 15.4% | 104% | 
Cc1nc2n(c(=O)c1CCN1CCC(c3noc4cc(F)ccc34)CC1)CCCC2 [risperidone] |  |  |  | ED50 (KM mice; po): 0.015 mg/kg; effect on apomorphine induced clambering symptoms (in words) (KM mice; compared to the model group): effectively improve; Scoring (value), apomorphine induced clambering (KM mice; dosage 0.01 mg/kg): 5.20 ± 1.87; Scoring (value), apomorphine induced clambering (KM mice; dosage 0.03 mg/kg): 2.70 ± 1.77; Scoring (value), apomorphine induced clambering (KM mice; dosage 0.1 mg/kg): 1.80 ± 1.32; Scoring (value), apomorphine induced clambering (KM mice; dosage 0.3 mg/kg): 0.20 ± 0.63
O=c1oc2cc(OCCCN3CCN(c4cccc(Cl)c4Cl)CC3)ccc2c2c1CCC2 [Compound 2, 7-{3-[4-(2,3-dichlorophenyl)piperazin-1-yl]-propoxy}-2,3-dihydro-1H-cyclopenteno[c]benzopyran-4-one] | 65.8% | 11.5% | 14.3% | 
O=c1oc2cc(OCCCCN3CCC(c4noc5cc(F)ccc45)CC3)ccc2c2c1CCC2 [Compound 10, 7-{4-[4-(3-(6-fluoro-benzisoxazole)-1-piperidyl)-butoxy]}-2,3-dihydro-1H-cyclopenteno[c]benzopyran-4-one] | 42.5% | 5.7% | 68.4% | 
COc1ccccc1N1CCN(CCCCOc2ccc3c4c(c(=O)oc3c2Cl)CCC4)CC1 [Compound 13, 7-{4-[4-(2-methoxyphenyl)piperazin-1-yl]-butoxy}-6-chloro-2,3-dihydro-1H-cyclopenteno[c]benzopyran-4-one] | 106% | 59.2% | 105% | 
O=c1oc2cc(OCCCCN3CCN(c4ccc(F)cc4)CC3)ccc2c2c1CCC2 [Compound 9, 7-{4-[4-(4-fluorophenyl)piperazin-1-yl]-butoxy}-2,3-dihydro-1H-cyclopenteno[c]benzopyran-4-one] | 104% | 15.2% | 119% | 
COc1ccccc1N1CCN(CCCCOc2ccc3c4c(c(=O)oc3c2C)CCC4)CC1 [Compound 11, 7-{4-[4-(2-methoxyphenyl)piperazin-1-yl]-butoxy}-6-methyl-2,3-dihydro-1H-cyclopenteno[c]benzopyran-4-one] | 106% | 59.2% | 105% | 
O=c1oc2cc(OCCCCN3CCC(c4noc5cc(F)ccc45)CC3)c(Cl)cc2c2c1CCC2 [Compound 16, 7-{4-[4-(3-(6-fluoro-benzisoxazole)-1-piperidyl)-butoxy]}-8-chloro-2,3-dihydro-1H-cyclopenteno[c]benzopyran-4-one] | 55.3% | 51.5% | 88.4% | 
O=c1oc2cc(OCCCN3CCN(c4cccc(C(F)(F)F)c4)CC3)ccc2c2c1CCC2 [Compound 3, 7-{3-[4-(3-trifluoromethylphenyl)piperazin-1-yl]-propoxy}-2,3-dihydro-1H-cyclopenteno[c]benzopyran-4-one] | 104% | 17.2% | 62.2% | 
COc1ccccc1N1CCN(CCCOc2ccc3c4c(c(=O)oc3c2C)CCC4)CC1 [Compound 6, 7-{3-[4-(2-methoxyphenyl)piperazin-1-yl]-propoxy}-6-methyl-2,3-dihydro-1H-cyclopenteno[c]benzopyran-4-one] | 95.5% | 4.7% | 75.4% | 
Cc1cccc(N2CCN(CCCOc3ccc4c5c(c(=O)oc4c3)CCC5)CC2)c1C [Compound 1, 7-{3-[4-(2,3-dimethylphenyl)piperazin-1-yl]-propoxy}-2,3-dihydro-1H-cyclopenteno[c]benzopyran-4-one] | 103% | 3.3% | 82.9% | 
Cc1c(OCCCCN2CCN(c3nsc4ccccc34)CC2)ccc2c3c(c(=O)oc12)CCC3 [Compound 12, 7-{4-[4-(3-(1,2-benzisothiazole)-1-piperazinyl)-butoxy]}-6-methyl-2,3-dihydro-1H-cyclopenteno[c]benzopyran-4-one] | 104% | 61.2% | 107% | 
COc1ccc(N2CCN(CCCCOc3ccc4c5c(c(=O)oc4c3)CCC5)CC2)cc1 [Compound 8, 7-{4-[4-(4-methoxyphenyl)piperazin-1-yl]-butoxy}-2,3-dihydro-1H-cyclopenteno[c]benzopyran-4-one] | 62.8% | 26.4% | 23.4% | 
O=C1Cc2cc(CCN3CCN(c4nsc5ccccc45)CC3)c(Cl)cc2N1 [ziprasidone] |  |  |  | ED50 (KM mice; po, mice): 0.37 mg/kg; Scoring (value), apomorphine induced clambering (KM mice; dosage 0.3 mg/kg): 4.40 ± 2.01; Scoring (value), apomorphine induced clambering (KM mice; dosage 1 mg/kg): 3.80 ± 1.40; Scoring (value), apomorphine induced clambering (KM mice; dosage 3 mg/kg): 0.70 ± 1.16; Scoring (value), apomorphine induced clambering (KM mice; dosage 10 mg/kg): 0.40 ± 0.84; ED50 (in vivo [1]): 30.4 mg/kg; LD50 (in vivo [2]; mice, single intragastric administration, read-out: LD50): > 2000 mg/kg; ED50 (mice of Kunming breed): 0.56 mg/kg
OCCOCCN1CCN(C2=Nc3ccccc3Sc3ccccc32)CC1 [quetiapine] |  |  |  | Scoring (value), apomorphine induced clambering (KM mice; dosage 3 mg/kg): 4.00 ± 2.05; Scoring (value), apomorphine induced clambering (KM mice; dosage 10 mg/kg): 3.00 ± 1.63; Scoring (value), apomorphine induced clambering (KM mice; dosage 30 mg/kg): 4.00 ± 2.31; Scoring (value), apomorphine induced clambering (KM mice; dosage 100 mg/kg): 2.60 ± 2.55; Scoring (value), apomorphine induced clambering (KM mice; dosage 300 mg/kg): 0.50 ± 1.07; apomorphine induced clambering ED50 (KM mice; po, mice): 2.02 mg/kg; ED50 (in vivo [1]): 800 mg/kg; LD50 (in vivo [2]; KM): 800 mg/kg; MK-801 induced high activity ED50 (mice of Kunming breed): 10.1 mg/kg
COc1ccccc1N1CCN(CCCOc2ccc3c4c(c(=O)oc3c2)CCC4)CC1 [Compound 4, 7-{3-[4-(2-methoxyphenyl)piperazin-1-yl]-propoxy}-2,3-dihydro-1H-cyclopenteno[c]benzopyran-4-one] | 116% | 50.2% | 112% | 
Cc1cc2c(s1)Nc1ccccc1N=C2N1CCN(C)CC1 [olanzapine] |  |  |  | ED50 (KM mice; po): 0.11 mg/kg; Scoring (value), apomorphine induced clambering (KM mice; dosage 0.1 mg/kg): 5.00 ± 1.25; Scoring (value), apomorphine induced clambering (KM mice; dosage 0.3 mg/kg): 2.10 ± 1.10; Scoring (value), apomorphine induced clambering (KM mice; dosage 1 mg/kg): 1.30 ± 1.25; Scoring (value), apomorphine induced clambering (KM mice; dosage 3 mg/kg): 0.30 ± 0.48
O=C1CCc2ccc(OCCCCN3CCN(c4cccc(Cl)c4Cl)CC3)cc2N1 [aripiprazole] |  |  |  | ED50 (KM mice; po, mice): 0.66 mg/kg; Scoring (value), apomorphine induced clambering (KM mice; dosage 0.3 mg/kg): 4.50 ± 1.51; Scoring (value), apomorphine induced clambering (KM mice; dosage 1 mg/kg): 1.5 ± 1.08; Scoring (value), apomorphine induced clambering (KM mice; dosage 3 mg/kg): 2.30 ± 1.57; Scoring (value), apomorphine induced clambering (KM mice; dosage 10 mg/kg): 0.20 ± 0.42; ED50 (in vivo [1]): 2.4 mg/kg; LD50 (in vivo [2]; KM): 93 mg/kg; ED50 (mice of Kunming breed): 0.12 mg/kg
O=c1oc2cc(OCCCCN3CCC(c4noc5cc(F)ccc45)CC3)ccc2c2c1CCCC2 [Compound 18, 3-{4-[4-(3-(6-fluoro-benzisoxazole)-1-piperidyl)-butoxy]}-7,8,9,10-tetrahydrobenzo[c]benzopyran-6-one] | 46.6% | 80.6% | 114% | 

From patent US9018213B2, “Alicyclic[c] benzopyrone derivatives and uses thereof” (Huazhong University of Science & Technology, priority 2011, dated 2015)
